# Reference: US20230277508A1, “USE OF COMPOUND AS CYP2E1 INHIBITOR” (SHANGHAI LING XI BIOTECHNOLOGY DEVELOPMENT CO., LTD., priority 2020, published 2023)
# How the values were obtained:
# [1] = test system: lung cancer cell line Lewis in situ transplanted tumor; experiment: Mouse lung cancer model, in situ implantation of Lewis cells into lungs; format: in vivo, C57BL/6N mice
# Description: Experimental method: A female C57 mouse lung cancer model with an in situ transplanted tumor was prepared with a lung cancer cell line Lewis at a cell amount of 2*10^4. C57BL/6N mice were divided into a control group, a model group, a positive drug group, and an SMI0 intervention group, and the modeling took 18 days (control group, n=20; model group, n=20; positive drug group (20 mg/kg), n=15; SMI0 (3.3 mg/kg), n=15; SMI0 (10 mg/kg), n=20; and SMI0 (30 mg/kg), n=20). At the end of the experiment, a body weight of mice in each group was recorded, blood was collected from the orbit, the mice were sacrificed, and lung tissues and tumor tissues were collected and weighed. The weight and appearance of the lung (color, texture, or the like of the lung) were recorded. All tumors of an animal were cumulatively arranged together to indicate the tumorigenesis of the animal, and a cumulative weight of lung tumors in each animal was determined. Some lung specimens were subjected to HE staining, and then the lung lesion and tumorigenesis of mice in each group were observed.
# Experimental method: A WB method was used to detect the expression of […] cytokines TGF-β, IL-10, and IL-4, inflammation-associated signaling pathway proteins IL-6/p-STAT3 and p-ERK1/2/ERK1/2, and epithelial-mesenchymal transition (EMT)-associated proteins MMP-2 and MMP-9 in the mouse paracancerous lung tissue of each group and detect the expression of […] proteins caspase3 and Bcl-2 and an autophagy-associated protein p53 in the tumor tissue.
# [2] = test system: ovarian cancer ID-8 cell line in situ transplanted tumor; experiment: Mouse ovarian cancer in situ transplanted tumor model (ID-8); format: in vivo, C57/6 mouse; details: as high as; SMI0 30 mg/kg ig daily, 60-day modeling
# Description: Experimental method: A female C57/6 mouse ovarian cancer in situ transplanted tumor model was constructed with a murine ovarian cancer ID-8 cell line at a cell concentration of 1×10^6. A model group and an SMI0 intervention group were set for the experiment. The intervention group was intragastrically administered with the SMI0 compound at 30 mg/kg every day from three days before modeling to the end of the 60-day modeling (model group, n=15; and SMI0 compound (30 mg/kg) group, n=12). At the end of the experiment, blood was collected from the orbit, a body weight was measured, then the mice each were sacrificed, and ovary tissues and tumor tissues were collected. Ovary tissue specimens were subjected to HE staining, and then the ovary tumor tissue and tumorigenesis of mice in each group were observed.
# [3] = test system: liver cancer cell line H22 in situ transplanted tumor; experiment: Mouse liver cancer model, in situ implantation of H22 cells into liver; format: in vivo, BALB/c mouse; details: for liver H22 tumor incidence: 24 days, model group 100%
# Description: Experimental method: A male BALB/c mouse liver transplanted tumor model was constructed through in situ implantation of a liver cancer cell line H22 into the liver, with a cell concentration of 1.5*10^5. An SMI0 intervention group was divided into a low-dose group, a medium-dose group, and a high-dose group, which were intragastrically administered with the compound SMI0 respectively at 3.3 mg/kg, 10 mg/kg, and 30 mg/kg every day from two days before modeling to the end of the 24-day modeling (model group, n=19 mice; SMI0 compound low-dose group, n=19 mice; SMI0 compound medium-dose group, n=18 mice; and SMI0 compound high-dose group, n=29 mice). At the end of the experiment, blood was collected from the orbit, a body weight was measured, and then the mice each were sacrificed. The weight and appearance of a liver (color and texture of the liver) were recorded. Some liver specimens were subjected to HE staining, and then the liver lesion and tumorigenesis of mice in each group were observed.
# Experimental method: The levels of oxidative stress indexes MDA and T-AOC in the mouse paracancerous liver tissue were determined by a kit method; the expression of the chemokine CXCL-12 in the mouse paracancerous liver tissue was detected by RT-PCR; the expression of proinflammatory cytokines (TNF-α, IL-6, and IL-1β) and inflammation-associated signaling pathway proteins (ARRB1, Src, ITGAV, p-STAT3/STAT3, p-ERK/ERK, and p-P38MAPK/P38MAPK) in the mouse paracancerous liver tissue was detected by a WB method; and the expression of apoptosis-associated proteins and signaling pathways casPase3, cleaved casPase3, p-ERK/ERK, and p-p38MAPK/p38MAPK in the tumor tissue was detected by a WB method.
# [4] = WB, SMI0 30 mg/kg vs model group, P<0.01
# [5] = WB, SMI0 30 mg/kg vs model group, P<0.05
# [6] = WB, SMI0 30 mg/kg vs model group
smiles,measurement,setting,value
CC(=O)c1scnc1C [SMI0],expression of the autophagy-associated protein p53 in the tumor tissue,[1]; [4],significantly increased
same,expression of Bcl-2 in the tumor tissue,[1]; [5],significantly reduced
same,expression of caspase3 in the tumor tissue,[1]; [5],significantly reduced
same,"expression of proinflammatory cytokines (TGF-β and IL-10), IL-6/p-STAT3, p-ERK1/2/ERK1/2, MMP-2 and MMP-9 in the paratumoral tissue","[1]; WB, SMI0 intervention group vs model group, P<0.05",significantly reduced
same,tumor proliferation inhibition rate,"[1]; as high as, SMI0 intervention group (3.3, 10, 30 mg/kg), 18 days, lung tumor weight",68.3%
same,ascites weight inhibition rate,[2],76.40%
same,tumor proliferation inhibition rate,[2],63.14%
same,liver H22 tumor incidence,[3]; SMI0 high-dose 30 mg/kg ig daily,68.4%
same,total oxidation resistance index T-AOC in paratumoral liver tissue,"[3]; SMI0 intervention group vs model group, P<0.01",significantly increased
same,"expression of other proteins (MDA, CXCL-12, TNF-α, IL-6, IL-1β, ARRB1, Src, ITGAV, p-STAT3/STAT3, p-ERK/ERK, p-p38MAPK/p38MAPK) in paratumoral liver tissue","[3]; SMI0 intervention group vs model group, P<0.05 or P<0.01",significantly reduced
same,liver H22 tumor incidence,[3]; SMI0 low-dose 3.3 mg/kg ig daily,78.9%
same,liver H22 tumor incidence,[3]; SMI0 medium-dose 10 mg/kg ig daily,72.2%
same,expression of p-ERK/ERK in the tumor tissue,[3]; [6],significantly down-regulated
same,expression of p-p38MAPK/p38MAPK in the tumor tissue,[3]; [6],significantly down-regulated
same,expression of cleaved caspase3/caspase3 in the tumor tissue,[3]; [4],significantly up-regulated
same,tumor proliferation inhibition rate,"[3]; as high as, SMI0 intervention group (3.3, 10, 30 mg/kg), cumulative liver tumor weight",71.8%
